Source: patent publication US20250296940A1, “ANNULATED 2-AMINO-3-CYANO THIOPHENES AND DERIVATIVES FOR THE TREATMENT OF CANCER” (Boehringer Ingelheim Int'l GmbH Corp., priority 2021, published 2025)
≈ marks a conversion by molar mass, not a printed value. Like-named read-outs stand apart in the source and are kept apart here.

Columns and labels:
Ba/F3 KRASG12C cells = Ba/F3 KRASG12C cells (Homo sapiens, UniProt P01116, G12C, cells depend on it); test: Ba/F3 cell model proliferation assay (AlamarBlue, 72 h); assay type: cell-based; details: without IL-3, read-out: IC50 Ba/F3 KRASG12C
Sequence of Ba/F3 KRASG12C cells (P01116 whole entry G12C): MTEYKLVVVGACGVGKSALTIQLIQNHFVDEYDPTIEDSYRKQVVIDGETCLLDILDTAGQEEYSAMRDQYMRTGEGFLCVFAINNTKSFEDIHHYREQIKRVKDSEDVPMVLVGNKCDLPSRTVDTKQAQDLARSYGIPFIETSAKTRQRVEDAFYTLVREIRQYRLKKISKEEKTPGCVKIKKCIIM
Experimental: Plasmids containing KRASG12 mutants were obtained from GeneScript. […] Retrovirus was added to Ba/F3 cells. To ensure infection, 4 μg/mL polybrene was added and cells were spinfected. […] As a control, parental Ba/F3 cells were used to show selection status. Selection was considered successful when parental Ba/F3 cells cultures died. […] Ba/F3 cells harboring the empty vector were used as a control. Approximately ten days before conducting the experiments, puromycin was left out.
Compounds were added using an Access Labcyte Workstation with a Labcyte Echo 550 or 555 acoustic dispenser. All treatments were performed in technical duplicates. The assay is run using a fully automated robotic system. […] AlamarBlue™ (ThermoFisher), a viability stain, was added and fluorescence measured in the PerkinElmer Envision HTS Multilabel Reader. The raw data were imported into and analyzed with the Boehringer Ingelheim proprietary software MegaLab (curve fitting based on the program PRISM, GraphPad Inc.).

[1] = Solubility measurement (DMSO solution precipitation method); assay type: physicochemical; details: aqueous buffer, kinetic from dmso stock, ambient temperature
Experimental: The DMSO solution is diluted with an aqueous medium (McIlvaine buffer with pH=4.5 or 6.8) to a final concentration of 250 μM. After 24 h of shaking at ambient temperature a potentially formed precipitate is removed by filtration. The concentration of the test compound in the filtrate is determined by LC-UV methods by calibrating the signal to the signal of a reference solution with complete dissolution of the test compound in acetonitrile/water (1:1) with known concentration.
Data obtained with the disclosed assay for a selection of compounds (I) according to the invention: […]

[2] = biological target: T1, protein-protein interaction between SOS1 and KRAS G12C (Homo sapiens, UniProt P01116, C118S/C51S/C80L/G12C); test: KRAS::SOS1 AlphaScreen Binding Assay; details: Table 20, compounds (I); 7.5 nM KRAS G12C, 10 μM GDP, 5 nM GST-SOS1
T1 construct: His6 (N); SOS1: in-house or Viva Biotech Ltd; host or cells: E. coli (KRAS)
T1 sequence (P01116 1-169 isoform P01116-2 G12C/C51S/C80L/C118S): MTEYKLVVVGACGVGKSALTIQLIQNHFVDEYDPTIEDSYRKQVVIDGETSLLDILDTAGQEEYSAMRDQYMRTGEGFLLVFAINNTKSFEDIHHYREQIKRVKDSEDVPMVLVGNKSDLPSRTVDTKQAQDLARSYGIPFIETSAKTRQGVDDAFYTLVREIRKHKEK
Text: This assay can be used to examine the potency with which compounds according to the invention binding to KRAS G12C inhibit the protein-protein interaction between SOS1 and KRAS G12C. […] Low IC50 values in this assay setting are indicative of strong inhibition of protein-protein interaction between SOS1 and KRAS:
• GST-tagged SOS1 (564_1049_GST_TEV_ECO) produced in-house • GST-TEV-SOS1 (564-1049) is purchased from Viva Biotech Ltd. • The expression construct of KRAS G12C (amino acids 1-169 of reference sequence P01116-2 (uniprot), with additional mutations: C51S, C80L, and C118S) containing a C-terminal avi-tag was obtained by gene synthesis (GeneArt, Thermo Fisher) in donor vector (pDONR-221) and transferred by recombinant cloning into pDEST17 vector bearing an N-terminal His6-tag. The protein was expressed in E. coli and the purified protein was biotinylated with the E. coli biotin ligase (BirA) before usage. • GDP (Sigma Cat No G7127) • AlphaLISA Glutathione Acceptor Beads (PerkinElmer, Cat No AL109) • AlphaScreen Streptavidin Donor Beads (PerkinElmer Cat No 6760002) • Assay plates: Proxiplate-384 PLUS, white (PerkinElmer, Cat No 6008289)
7.5 nM (final assay concentration) KRAS G12C, 10 μM (final assay concentration) GDP and 5 nM (final assay concentration) GST-SOS1 are mixed in assay buffer prior to use and kept at room temperature.
AlphaLISA Glutathione Acceptor Beads and AlphaScreen Streptavidin Donor Beads are mixed in assay buffer at a concentration of 10 μg/mL (final assay concentration) each prior to use and kept at room temperature.
Compounds are diluted to a final start concentration of 100 μM and are tested in duplicate. Assay-ready plates (ARPs) are generated using an Access Labcyte Workstation with a Labcyte Echo 550 or 555 acoustic dispenser. For compound a start concentration of 100 μM, 150 nL of compound solution is transferred per well in 11 concentrations in duplicate with serial 1:5 dilutions.
The assay is run using a fully automated robotic system in a darkened room below 100 Lux. 10 μL of KRAS::SOS1 GDP mix is added into columns 1-24 to the 150 nL of compound solution (final dilution in the assay 1:100, final DMSO concentration 1%).
After 30 minutes incubation time 5 μL of bead mix is added into columns 1-23. Plates are kept at room temperature in a darkened incubator. After further 60 minutes incubation, the signal is measured using a PerkinElmer Envision HTS Multilabel Reader using the AlphaScreen specifications from PerkinElmer. Each plate contains the following controls: • diluted DMSO+KRAS::SOS1 GDP mix+bead mix • diluted DMSO+KRAS::SOS1 GDP mix
IC50 values are calculated and analyzed using a 4 parametric logistic model.
Tables of example compounds disclosed herein contain IC50 values determined using the above assay.

[3] = McIlvaine buffer pH 4.5, 24 h, read-out: Solubility pH 4.5
[4] = McIlvaine buffer pH 6.8, 24 h, read-out: Solubility pH 6.8

SMILES	GI50 (Ba/F3 KRASG12C cells) [nM]	solubility at 24 h [1, 3] [µg/mL]	solubility at 24 h [1, 4] [µg/mL]	IC50 [2] [nM]
C=C(F)C(=O)N1[C@@H](C)CN(c2cc(O[C@@H](C)[C@@H]3CCCN3C)nc(-c3onc4c3CCC[C@@]43CCCc4sc(N)c(C#N)c43)n2)C[C@@H]1C [Ia-1]	0.8	125 (≈ 185 µM)	57 (≈ 84.5 µM)	1.6
C=CC(=O)N1[C@@H](C)CN(c2cc(O[C@@H](C)[C@@H]3CCCN3C)nc(-c3onc4c3CCC[C@@]43CCCc4sc(N)c(C#N)c43)n2)C[C@@H]1C [Ia-2]	0.1	> 156	126 (≈ 192 µM)	< 1.5
C=C(F)C(=O)N1[C@@H](C)CN(c2cc(-c3onc4c3CCC[C@@]43CCCc4sc(N)c(C#N)c43)nc(O[C@@H](C)[C@@H]3CCCN3C)n2)C[C@@H]1C [Ia-3]	3.7	116 (≈ 172 µM)	< 1	4
C=CC(=O)N1[C@@H](C)CN(c2cc(-c3onc4c3CCC[C@@]43CCCc4sc(N)c(C#N)c43)nc(O[C@@H](C)[C@@H]3CCCN3C)n2)C[C@@H]1C [Ia-4]	0.1	> 163	> 160	1.6
C[C@H](Oc1cc(N2C[C@H](C)N(C(=O)/C=C/CF)[C@@H](C)C2)nc(-c2noc3c2CCC[C@@]32CCCc3sc(N)c(C#N)c32)n1)[C@@H]1CCCN1C [Ib-1]	0.5	–	–	1.7
C=CC(=O)N1CCN(c2cc(O[C@@H](C)[C@@H]3CCCN3C)nc(-c3noc4c3CCC[C@@]43CCCc4sc(N)c(C#N)c43)n2)CC12CC2 [Ib-2]	0.3	111 (≈ 170 µM)	77 (≈ 118 µM)	1.3
C=CC(=O)N1[C@@H](C)CN(c2cc(O[C@@H](C)[C@@H]3CCCN3C)nc(-c3noc4c3CCC[C@@]43CCCc4sc(N)c(C#N)c43)n2)C[C@@H]1C [Ib-3]	0.2	130 (≈ 198 µM)	121 (≈ 184 µM)	1.5
C=CC(=O)N1[C@@H](C)CN(c2cc(-c3noc4c3CCC[C@@]43CCCc4sc(N)c(C#N)c43)nc(O[C@@H](C)[C@@H]3CCCN3C)n2)C[C@@H]1C [Ib-4]	0.1	> 140	129 (≈ 196 µM)	1.4
C=C(F)C(=O)N1[C@@H](C)CN(c2cc(O[C@@H](C)[C@@H]3CCCN3C)nc(-c3noc4c3CCC[C@@]43CCCc4sc(N)c(C#N)c43)n2)C[C@@H]1C [Ib-5]	0.5	116 (≈ 172 µM)	40 (≈ 59.3 µM)	1.6
C=C(F)C(=O)N1[C@@H](C)CN(c2cc(-c3noc4c3CCC[C@@]43CCCc4sc(N)c(C#N)c43)nc(O[C@@H](C)[C@@H]3CCCN3C)n2)C[C@@H]1C [Ib-6]	1.6	113 (≈ 167 µM)	50 (≈ 74.1 µM)	2.1
C[C@H](Oc1nc(-c2noc3c2CCC[C@@]32CCCc3sc(N)c(C#N)c32)cc(N2C[C@H](C)N(C(=O)/C=C/CF)[C@@H](C)C2)n1)[C@@H]1CCCN1C [Ib-7]	1.6	> 139	108 (≈ 157 µM)	3.1
C[C@H](Oc1nc(-c2noc3c2CCC[C@@]32CCCc3sc(N)c(C#N)c32)cc(N2C[C@H](C)N(C(=O)/C=C/c3cccnc3)[C@@H](C)C2)n1)[C@@H]1CCCN1C [Ib-8]	25.1	102 (≈ 139 µM)	13 (≈ 17.7 µM)	3.2
COC/C=C/C(=O)N1[C@@H](C)CN(c2cc(-c3noc4c3CCC[C@@]43CCCc4sc(N)c(C#N)c43)nc(O[C@@H](C)[C@@H]3CCCN3C)n2)C[C@@H]1C [Ib-9]	15.1	83 (≈ 118 µM)	114 (≈ 163 µM)	6.2
